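A five-concentration, 48-hour dose response in 96-well plates underlies each endpoint, interpolated linearly between surrounding concentrations. At the GI50, growth is halved.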 Active and inactive are the calls of the source. No stated cut-off is given here; in the data, active = GI50 up to about 1.1 µM and inactive = higher. Where a SMILES comes first, the peptide text is derived from it. The star is where a group is joined. Boc = CC(C)(C)OC(=O)*; Bn = c1ccc(C*)cc1 Some results are limits rather than exact numbers.

Among the test systems are DU-145; HCT-15; SF-295; COLO 205; SN12C; A498; EKVX; T47D; HT-29; MDA-MB-231; KM12; UO-31; RPMI-8226; NCI/ADR-RES.
What all share (assay): growth of human tumour cells (NCI), 48 h

For the compound `CCCN1C(=O)CN(S(=O)(=O)c2ccc(Cl)cc2)C1=O`, the GI50 is > 100 µM (inactive) with DU-145; > 100 µM in the test with HCT-15; > 100 µM (inactive) in the test with SF-295; > 100 µM (inactive) in the test with COLO 205; > 100 µM (inactive) in the test with SN12C; > 100 µM (inactive) with A498. For the same compound, the GI50 in the test on EKVX, in the test with T47D, in the test on HT-29, with MDA-MB-231, in the test with KM12 and in the test with UO-31 was > 100 µM (inactive) in each case. For the same compound, in the test with RPMI-8226, the GI50 was > 100 µM (inactive).

For the compound `COc1cc(C2SCC(=O)N2Cc2ccccc2)cc(OC)c1OC` (configuration not stated), the GI50 in the test with DU-145 is 22.1 µM (inactive); with HCT-15 it was > 100 µM; in the test on SF-295, > 100 µM (inactive); with COLO 205, > 100 µM (inactive); in the test with SN12C, > 100 µM (inactive); in the test on EKVX it was > 100 µM (inactive). Further, the GI50 with NCI/ADR-RES, in the test with HT-29, with MDA-MB-231, with KM12, with UO-31 and in the test on RPMI-8226 was > 100 µM (inactive) throughout.

Regarding `S=C1CC(c2ccc(Cl)cc2)Sc2ccccc2N1` (configuration not stated), the GI50 in the test with DU-145 is 51.4 µM (inactive); in the test with HCT-15 it was 90.8 µM; in the test on SF-295, > 100 µM (inactive); in the test with COLO 205, 71.9 µM (inactive); with SN12C, 78.5 µM (inactive); with EKVX, 34 µM (inactive). The GI50 in the test with T47D was 40.4 µM (inactive); in the test on NCI/ADR-RES it was 32.4 µM (inactive); with HT-29 it was > 100 µM (inactive); in the test on MDA-MB-231 it was 30.4 µM (inactive); in the test on KM12, 45.7 µM (inactive); in the test with UO-31 it was > 100 µM (inactive). In addition, the GI50 in the test with RPMI-8226 was 24.3 µM (inactive).

As to `CCCSc1ccc2[nH]c(N3C(=O)/C(=C/c4ccc(O)c(OC)c4)N=C3c3ccccc3)cc2c1`, the GI50 in the test with DU-145 is 25.8 µM (inactive); with HCT-15, 4.43 µM; in the test on COLO 205 it was 4.27 µM (inactive); in the test with SN12C, 4.18 µM (inactive); in the test with A498 it was 6.35 µM (inactive); in the test with EKVX, 14.5 µM (inactive). In addition, the GI50 is 22.3 µM (inactive) with T47D; 3.1 µM (inactive) with NCI/ADR-RES; 3.02 µM (inactive) in the test with HT-29; 0.0791 µM (active) with KM12; 12.8 µM (inactive) with UO-31; 3.53 µM (inactive) in the test on RPMI-8226.

Regarding `COC(=O)C(=O)C(C(=O)OC)C(=O)C(=O)Nc1c(Cl)cc([N+](=O)[O-])cc1Cl` (configuration not stated), the GI50 was 92.9 µM in the test on HCT-15; 64 µM (inactive) in the test on SF-295; > 100 µM (inactive) in the test on SN12C; > 100 µM (inactive) in the test on A498; 48.6 µM (inactive) in the test on EKVX; > 100 µM (inactive) in the test on T47D. Besides, the GI50 is 72.8 µM (inactive) in the test on NCI/ADR-RES; > 100 µM (inactive) in the test on HT-29; > 100 µM (inactive) in the test on MDA-MB-231; > 100 µM (inactive) with KM12; > 100 µM (inactive) with UO-31; > 100 µM (inactive) in the test on RPMI-8226.

In the case of `CCOC(=O)CCCn1cc(C(=O)OC)nn1`, the GI50 was > 100 µM (inactive) in the test with DU-145; > 100 µM in the test on HCT-15; 46.5 µM (inactive) in the test on SF-295; > 100 µM (inactive) with COLO 205; > 100 µM (inactive) with SN12C; > 100 µM (inactive) in the test on EKVX. Further, the GI50 in the test with T47D, in the test on NCI/ADR-RES, in the test with HT-29, with MDA-MB-231, in the test with KM12 and in the test on UO-31 was > 100 µM (inactive) in each case.

For the compound `O=C(O)c1nc2cc(C(F)(F)F)ccc2nc1Nc1ccc(F)cc1`, the GI50 with SF-295 was 13.4 µM (inactive); in the test on COLO 205, 15.9 µM (inactive); in the test on A498, 14.3 µM (inactive); in the test on EKVX it was 21.9 µM (inactive); in the test on T47D, 20.2 µM (inactive); with NCI/ADR-RES, 20 µM (inactive). In addition, the GI50 with HT-29 is 23 µM (inactive); in the test on MDA-MB-231, 22.9 µM (inactive); with KM12 it was 6.64 µM (inactive); with UO-31, 15.8 µM (inactive); in the test on RPMI-8226, 4.17 µM (inactive).

As for `C=CCOC(C)(C)C1=CCC(C)CC1` (configuration not stated), the GI50 in the test on DU-145 is > 100 µM (inactive); in the test with HCT-15, > 100 µM; in the test with SF-295, > 100 µM (inactive); with COLO 205, > 100 µM (inactive); in the test with SN12C it was > 100 µM (inactive); in the test with A498, > 100 µM (inactive). Also, the GI50 with EKVX, in the test with HT-29, with KM12, in the test on UO-31 and in the test on RPMI-8226 was > 100 µM (inactive) each time.

Take `C/C(=C1/N=C(c2ccccc2)OC1=O)c1cccs1`: the GI50 in the test with DU-145 is > 100 µM (inactive); with HCT-15, > 100 µM; in the test with SF-295, > 100 µM (inactive); with COLO 205, > 100 µM (inactive); in the test on SN12C, > 100 µM (inactive); in the test on A498, > 100 µM (inactive). The GI50 in the test on EKVX is > 100 µM (inactive); with T47D it was > 100 µM (inactive); in the test with HT-29, > 100 µM (inactive); in the test with MDA-MB-231, 66.7 µM (inactive); with KM12 it was > 100 µM (inactive); in the test with RPMI-8226 it was > 100 µM (inactive).

For `COC(=O)C(=O)C(C(=O)C(=O)Nc1nnc(S)[nH]1)c1nc2ccc([N+](=O)[O-])cc2nc1O` (configuration not stated), the GI50 with HCT-15 is > 100 µM; with SF-295, > 100 µM (inactive); in the test on SN12C it was > 100 µM (inactive); with A498 it was > 100 µM (inactive); in the test on EKVX, > 100 µM (inactive); in the test on T47D, > 100 µM (inactive). Moreover, the GI50 in the test on NCI/ADR-RES is > 100 µM (inactive); in the test with HT-29, > 100 µM (inactive); in the test with MDA-MB-231, > 100 µM (inactive); in the test with KM12, > 100 µM (inactive); in the test with UO-31, 82.8 µM (inactive); in the test with RPMI-8226, > 100 µM (inactive).

Regarding `C=CCOC(=O)NC1C(OC(C)[C@@H](NC(=O)OCc2ccccc2)C(=O)OC(C)(C)C)OC(COC(C)=O)C(OC(C)=O)C1OC(C)=O` (some centres not stated), the GI50 was > 100 µM (inactive) with DU-145; > 100 µM with HCT-15; > 100 µM (inactive) in the test with SF-295; > 100 µM (inactive) in the test on COLO 205; 43.4 µM (inactive) in the test on SN12C; > 100 µM (inactive) in the test with A498. Moreover, the GI50 was > 100 µM (inactive) with EKVX; 50.6 µM (inactive) in the test with NCI/ADR-RES; > 100 µM (inactive) in the test on HT-29; 15.1 µM (inactive) in the test on MDA-MB-231; > 100 µM (inactive) in the test on KM12; 17.2 µM (inactive) in the test with UO-31. Further, in the test on RPMI-8226, the GI50 is 62.4 µM (inactive).

As for `CCCc1nc2c(n1CC)C(=O)c1ccccc1C2=O`, the GI50 was 74.5 µM (inactive) in the test with DU-145; 28.3 µM in the test on HCT-15; 56 µM (inactive) in the test with SF-295; 35.5 µM (inactive) in the test on COLO 205; 30.5 µM (inactive) with SN12C; 28.5 µM (inactive) in the test on T47D. Further, the GI50 in the test with NCI/ADR-RES was 26.2 µM (inactive); with HT-29 it was 18.5 µM (inactive); in the test on MDA-MB-231, 79.6 µM (inactive); in the test on KM12, 40.3 µM (inactive); with RPMI-8226, 31.3 µM (inactive).

In the case of `Cc1ccc(-c2c(C#N)c(S)n(NS(=O)(=O)c3ccccc3)c(=O)c2C#N)cc1`, the GI50 is 53.3 µM (inactive) in the test on DU-145; 21.7 µM in the test with HCT-15; 34 µM (inactive) with SF-295; 38.5 µM (inactive) in the test with COLO 205; 27.9 µM (inactive) in the test on SN12C; 21.2 µM (inactive) with A498. Besides, the GI50 was 31 µM (inactive) in the test on EKVX; 13.2 µM (inactive) in the test on NCI/ADR-RES; 26.1 µM (inactive) in the test on MDA-MB-231; 28 µM (inactive) in the test on KM12; 20.1 µM (inactive) in the test with UO-31; 23.3 µM (inactive) with RPMI-8226.

`Cc1ccc(S(=O)(=O)NC(=O)Nc2c(S(N)(=O)=O)cc(S(N)(=O)=O)c(Cl)c2Cl)cc1`: the GI50 in the test with HCT-15 was > 100 µM; in the test with SF-295 it was > 100 µM (inactive); in the test on SN12C it was > 100 µM (inactive); with A498 it was > 100 µM (inactive); in the test on EKVX, > 100 µM (inactive); in the test with NCI/ADR-RES it was > 100 µM (inactive). Further, the GI50 with HT-29, in the test with MDA-MB-231, with KM12, with UO-31 and in the test on RPMI-8226 was > 100 µM (inactive) each time.

On to `C[N+](C)([O-])CCCNc1ccnc2cccc([N+](=O)[O-])c12`, for which the GI50 is 20.9 µM (inactive) in the test with DU-145; 24.2 µM with HCT-15; 92.7 µM (inactive) with SF-295; 20.7 µM (inactive) in the test with COLO 205; 47.1 µM (inactive) in the test on SN12C; 51.3 µM (inactive) in the test with A498. In addition, the GI50 was > 100 µM (inactive) in the test on EKVX; 40 µM (inactive) in the test with T47D; 32.9 µM (inactive) with HT-29; 53.5 µM (inactive) in the test on MDA-MB-231; 33 µM (inactive) in the test on KM12; 46.5 µM (inactive) in the test on UO-31. Besides, the GI50 with RPMI-8226 was 21.5 µM (inactive).

On to `COC(=O)C(CC(C)C)NC(=O)CNC(=O)C(Cc1ccc(OCc2ccccc2)cc1)NC(=O)C(COCc1ccccc1)NC(=O)OC(C)(C)C` (configuration not stated) (Boc-S(Bn)Y(Bn)GL-OMe; configuration not given here), for which the GI50 with DU-145, in the test with SF-295, in the test with COLO 205, with SN12C, in the test on EKVX and in the test with T47D was > 100 µM (inactive) each time. The GI50 with NCI/ADR-RES is > 100 µM (inactive); in the test with HT-29, > 100 µM (inactive); in the test with MDA-MB-231 it was > 100 µM (inactive); with KM12, > 100 µM (inactive); in the test on UO-31, > 100 µM (inactive); with RPMI-8226, 9.51 µM (inactive).

The values are drawn from ChEMBL document CHEMBL1201862, “PubChem BioAssay data set” (2004).
